Results reported in patent US4518581A, “Imparting low- or anti-cariogenic property to orally-usable products” (Kabushiki Kaisha Hayashibara Seibutsu Kagaku Kenkyujo, priority 1981, dated 1985).

What was measured:
[1] = target: T1, water-insoluble glucan producing enzyme (Streptococcus downei, UniProt P27470); experiment: Effect of saccharides on formation of water-insoluble glucan from sucrose (Experiment 3); format: biochemical, Streptococcus mutans 6715 strain; conditions: 1 ml 4 w/v % sucrose plus 1 ml 4 w/v % saccharide, 0.02 units enzyme, 37° C., 16 hours; for A: amounts of water-insoluble glucan formed: sucrose control 300
T1 construct: endogenous in cells; host or cells: Streptococcus mutans 6715 strain (today S. sobrinus), culture supernatant, ammonium sulfate precipitate, dialyzed
Experimental: After completion of the cultivation, the culture was separated into cell precipitant and supernatant. Thereafter, to the supernatant was added with ammonium sulfate to give 60% saturation, and the resultant precipitant was dialyzed against 0.1M phosphate buffer (pH 7.2) to obtain an aqueous solution containing the enzyme.
The titers of the enzyme were assayed as follows: A mixture solution, consisting of 1 ml of 0.2M aqueous sucrose solution, 1 ml of water, 1 ml of 0.1M phosphate buffer containing 0.05 w/v % NaN3, and 0.5 ml of the enzyme solution (below 0.05 units), is incubated at 37° C. for 9 hours, followed by centrifugation of the reaction mixture. The resultant precipitant is mixed with 4 ml of 0.5N sodium hydroxide solution, and then incubated at this temperature for an additional one hour to dissolve the precipitant. The amount of water-insoluble glucan formed during the enzymatic reaction is then measured. One unit of the enzyme is defined as the amount of enzyme that transfers 1 μmole glucose from sucrose to the water-insoluble glucan in one minute.
Effects of some saccharides on the formation of water-insoluble glucan were tested: Water-insoluble glucan formation and inhibition thereof were determined according to the enzyme assay method as described in EXPERIMENT 1, except that the mixture solution contained sucrose, or sucrose and each saccharide as listed in TABLE I. The experiment was carried out as follows: A mixture solution, consisting of 1 ml of 4 w/v % aqueous sucrose solution, 1 ml of 4 w/v % aqueous solution of each saccharide as listed in TABLE I, 1.5 ml of 0.1M phosphate buffer containing 0.05 w/v % NaN3, and 0.5 ml of the enzyme solution (0.02 units), was incubated at 37° C. for 16 hours, and the water-insoluble glucan formation in the reaction mixture was determined according to the enzyme assy method.
In a control experiment, 1 ml of the above described saccharide solution was replaced with the same amount of water.
The inhibition degree was calculated with following equation:
Inhibition degree (%)=100-A/B×100
where A and B are respective amounts of the water-insoluble glucan formed (μg/ml) when the mixture solution contained sucrose or sucrose and each of the saccharides.

[2] = test system: Streptococcus mutans 6715 strain; experiment: Organic acid formation from saccharides by Streptococcus mutans cells, pH-measurement (Experiment 4); format: cell-based; conditions: 37° C., 30 minutes; for organic acid formation from the saccharide: Streptococcus mutans 6715 cells; for pH-Level of the reaction mixture (organic acid formation): cell suspension, Stephan's buffer (pH 7.0), saccharide solution
Experimental: Organic acid formation from some saccharides by Streptococcus mutans was tested: Streptococcus mutans 6715 strain was cultivaed similarly as in EXPERIMENT 1, and the cells, obtained by centrifuging the culture, were washed with 0.9 w/v % sodium chloride solution, followed by additional centrifugation. Two ml of a mixture solution, consisting of 0.2 ml of the cell suspension, prepared from about 100 ml of the culture, 1.5 ml of Stephan's buffer, and 0.3 ml aqueous solution of each saccharide as listed in TABLE II, was incubated at 37° C. for 30 minutes, followed by pH-measurement of the reaction mixture. The Stephan's buffer was prepared by the method as reported by R. M. Stephan et al., Journal of Dental Research, Vol.26, pp.15-41 (1947): One ml of Solution I, prepared by dissolving 17.89 g Na2 HPO4. 12H2 O, 7.92 g KOH and 6.81 g KH2 PO4 in water to give a final volume of 100 ml, was placed in a 100-ml volumetric flask, and mixed with about 90 ml of water. To the flask was added 1 ml of Solution II, prepared by dissolving 4.54 g KH2 PO4, 0.32 g MgSO4.7H2 O, 0.57 g CaSO4.2H2 O and 10 ml of 3.5% hydrochloric acid solution in water to give a final volume of 100 ml. This mixture was diluted with additional water to obtain 100 ml of Stephan's buffer (pH 7.0).
The results are given in TABLE II, wherein the organic acid formation from the saccharides can be estimated by the pH-values.

[3] = target: T1, water-insoluble glucan producing enzyme; experiment: Effect of saccharides on formation of water-insoluble glucan from sucrose (Experiment 3); format: biochemical, Streptococcus mutans 6715 strain; conditions: saccharide reduced to 10% against sucrose: 1 ml 4 w/v % sucrose plus 1 ml 0.4 w/v % saccharide, 37° C., 16 hours

T1 sequence (P27470 39-1592): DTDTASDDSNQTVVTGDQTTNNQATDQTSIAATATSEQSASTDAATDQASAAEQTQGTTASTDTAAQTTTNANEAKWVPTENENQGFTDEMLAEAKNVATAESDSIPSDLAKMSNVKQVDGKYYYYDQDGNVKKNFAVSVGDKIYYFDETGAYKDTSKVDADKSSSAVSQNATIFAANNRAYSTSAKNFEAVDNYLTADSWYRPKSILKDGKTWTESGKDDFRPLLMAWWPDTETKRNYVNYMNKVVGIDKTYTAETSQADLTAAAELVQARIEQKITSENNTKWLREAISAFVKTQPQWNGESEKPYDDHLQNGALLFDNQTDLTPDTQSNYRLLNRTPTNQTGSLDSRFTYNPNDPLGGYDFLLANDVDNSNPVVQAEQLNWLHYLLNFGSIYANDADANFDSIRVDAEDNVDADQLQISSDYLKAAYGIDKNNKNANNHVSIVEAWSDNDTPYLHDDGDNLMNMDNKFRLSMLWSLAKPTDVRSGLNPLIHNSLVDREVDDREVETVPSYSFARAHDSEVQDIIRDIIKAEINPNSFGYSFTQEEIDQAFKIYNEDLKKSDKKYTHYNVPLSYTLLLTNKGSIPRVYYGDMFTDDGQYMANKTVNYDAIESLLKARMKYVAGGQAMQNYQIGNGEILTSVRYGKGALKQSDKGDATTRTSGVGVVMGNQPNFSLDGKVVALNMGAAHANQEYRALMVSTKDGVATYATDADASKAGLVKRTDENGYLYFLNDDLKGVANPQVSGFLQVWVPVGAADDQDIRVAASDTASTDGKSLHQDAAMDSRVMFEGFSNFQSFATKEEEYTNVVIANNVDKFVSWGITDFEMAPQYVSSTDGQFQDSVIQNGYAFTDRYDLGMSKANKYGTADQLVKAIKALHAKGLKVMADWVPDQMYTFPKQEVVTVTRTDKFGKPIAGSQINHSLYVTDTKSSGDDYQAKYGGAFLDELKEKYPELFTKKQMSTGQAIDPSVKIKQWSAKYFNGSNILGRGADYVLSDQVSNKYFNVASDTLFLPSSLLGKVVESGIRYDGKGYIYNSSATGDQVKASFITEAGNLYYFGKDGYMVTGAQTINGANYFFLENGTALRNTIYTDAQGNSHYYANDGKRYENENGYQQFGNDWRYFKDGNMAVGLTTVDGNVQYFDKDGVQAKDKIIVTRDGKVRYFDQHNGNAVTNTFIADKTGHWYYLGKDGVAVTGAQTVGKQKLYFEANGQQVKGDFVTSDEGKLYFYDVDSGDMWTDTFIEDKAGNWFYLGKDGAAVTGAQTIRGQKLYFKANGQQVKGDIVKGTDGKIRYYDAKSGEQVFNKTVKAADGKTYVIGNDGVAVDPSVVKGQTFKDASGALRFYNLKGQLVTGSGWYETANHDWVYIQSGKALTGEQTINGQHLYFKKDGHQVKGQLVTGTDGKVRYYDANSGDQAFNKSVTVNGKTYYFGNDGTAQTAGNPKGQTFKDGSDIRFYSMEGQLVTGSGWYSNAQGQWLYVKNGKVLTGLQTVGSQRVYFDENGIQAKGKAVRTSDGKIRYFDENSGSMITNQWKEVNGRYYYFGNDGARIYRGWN

Compound | A: amounts of water-insoluble glucan formed [1] [µg/mL] | organic acid formation from the saccharide [2] | pH-Level of the reaction mixture (organic acid formation) [2] | C: inhibition degree of water-insoluble glucan formation [3] [%] | C: inhibition degree of water-insoluble glucan formation ([3]; listed as isomaltopentaose) | B: inhibition degree on water-insoluble glucan formation [1] [%]
OC[C@H]1O[C@H](OC[C@H]2O[C@H](OC[C@H]3O[C@H](OC[C@H]4O[C@H](OC[C@H]5OC(O)[C@H](O)[C@@H](O)[C@@H]5O)[C@H](O)[C@@H](O)[C@@H]4O)[C@H](O)[C@@H](O)[C@@H]3O)[C@H](O)[C@@H](O)[C@@H]2O)[C@H](O)[C@@H](O)[C@@H]1O (stereo partly drawn) [Isomaltopentaose, 6^3 -O-α-isomaltosyl isomaltotriose] | 15 | no organic acid formation | 7.0 | 60 | 45-60% | –
OC[C@H]1O[C@@](CO)(OC[C@H]2O[C@](O)(CO)[C@@H](O)[C@@H]2O)[C@@H](O)[C@@H]1O [Levanbiose] | 288 | – | 6.5 | – | – | 4
OC[C@@H](O)[C@@H](O[C@H]1O[C@H](CO)[C@@H](O[C@H]2O[C@H](CO)[C@@H](O[C@H]3O[C@H](CO)[C@@H](O[C@H]4O[C@H](CO)[C@@H](O)[C@H](O)[C@H]4O)[C@H](O)[C@H]3O)[C@H](O)[C@H]2O)[C@H](O)[C@H]1O)[C@H](O)[C@@H](O)CO [Maltopentaitol] | 265 | – | 7.0 | – | – | 12
OC[C@H]1O[C@H](O[C@H]2[C@H](O)[C@@H](O)[C@@H](O[C@H]3[C@H](O)[C@@H](O)[C@@H](O[C@H]4[C@H](O)[C@@H](O)[C@@H](O[C@H]5[C@H](O)[C@@H](O)C(O)O[C@@H]5CO)O[C@@H]4CO)O[C@@H]3CO)O[C@@H]2CO)[C@H](O)[C@@H](O)[C@@H]1O (stereo partly drawn) [Maltopentaose] | 264 | – | 5.6 | – | – | 12
OC[C@H]1O[C@H](O[C@H]2[C@H](O)[C@@H](O)[C@@H](O[C@H]3[C@H](O)[C@@H](O)[C@@H](O[C@H]4[C@H](O)[C@@H](O)C(O)O[C@@H]4CO)O[C@@H]3CO)O[C@@H]2CO)[C@H](O)[C@@H](O)[C@@H]1O (stereo partly drawn) [Maltotetraose] | 255 | – | 5.3 | – | – | 15
OC[C@@H](O)[C@@H](O[C@H]1O[C@H](CO)[C@@H](O[C@H]2O[C@H](CO)[C@@H](O)[C@H](O)[C@H]2O)[C@H](O)[C@H]1O)[C@H](O)[C@@H](O)CO [Maltotriitol] | 262 | – | 7.0 | – | – | 13
OC[C@H]1O[C@H](O[C@H]2[C@H](O)[C@@H](O)[C@@H](O[C@H]3[C@H](O)[C@@H](O)C(O)O[C@@H]3CO)O[C@@H]2CO)[C@H](O)[C@@H](O)[C@@H]1O (stereo partly drawn) [Maltotriose] | 213 | – | 5.0 | – | – | 29
O=C(CO)[C@@H](O)[C@H](O[C@H]1O[C@H](CO)[C@@H](O)[C@H](O)[C@H]1O)[C@H](O)CO [Maltulose] | 180 | – | 7.0 | – | – | 40
OC[C@@H](O)[C@@H](O)[C@H](O)[C@H](O)CO [Mannitol] | 286 | – | 7.0 | – | – | 5
OC[C@H]1O[C@H](OC[C@H]2OC(O)[C@H](O)[C@@H](O)[C@@H]2O)[C@H](O)[C@@H](O)[C@H]1O (stereo partly drawn) [Melibiose] | 300 | – | 7.0 | – | – | –
CO[C@H]1O[C@H](CO)[C@@H](O)[C@H](O)[C@H]1O [Methyl-α-D-Glucose] | – | – | 7.0 | – | – | 14
CC(=O)N[C@H]1C(O)O[C@H](CO)[C@@H](O)[C@@H]1O (stereo partly drawn) [N--Acetyl glucosamine] | 285 | – | 7.0 | – | – | 5
OC[C@@H](O)[C@@H](O[C@H]1O[C@H](CO[C@H]2O[C@H](CO)[C@@H](O)[C@H](O)[C@H]2O)[C@@H](O)[C@H](O)[C@H]1O)[C@H](O)[C@@H](O)CO [Pannitol, 4-O-α-isomaltosyl glucitol] | 70 | no organic acid formation | 7.0 | – | – | –
C[C@@H]1OC(O)[C@H](O)[C@H](O)[C@H]1O (stereo partly drawn) [Rhamnose, L-Rhamnose] | 300 | – | 7.0 | – | – | 0
OC[C@@H](O)[C@@H](O)[C@H](O)[C@@H](O)CO [Sorbitol] | 290 | – | 7.0 | – | – | 8
OC[C@H]1O[C@H](O[C@H]2O[C@H](CO)[C@@H](O)[C@H](O)[C@H]2O)[C@H](O)[C@@H](O)[C@@H]1O [Trehalose] | 297 | – | 7.0 | – | – | 1
O=C(CO)[C@@H](O[C@H]1O[C@H](CO)[C@@H](O)[C@H](O)[C@H]1O)[C@H](O)[C@H](O)CO [Turanose] | 273 | – | 7.0 | – | – | 9
OC[C@@H](O)[C@H](O)[C@@H](O)CO [Xylitol] | 280 | – | 7.0 | – | – | 7
Inulobiose | 276 | – | 4.5 | – | – | 8
